From patent US20230119355A1, “PHARMACEUTICAL COMPOSITIONS OF A KINASE INHIBITOR” (AURIGENE DISCOVERY TECHNOLOGIES LIMITED, priority 2020, published 2023)
Counter-ions that a name gives are not always drawn. Like-named read-outs stand apart in the source and are kept apart here.

Assays:
[1] = Water solubility / ionisation at physiological pH; type: physicochemical
[2] = Bioavailability after oral administration; type: in vivo

water solubility of the salt form ([1]; hydrochloride salt forms compared with compound (I)) | bioavailability after oral administration ([2]; listed as Hydrochloride salt forms of compound (I)) | solubility in water ([1]; physiological pH range) | ionisation state ([1]; within the physiological pH range) | bioavailability after oral administration [2] | SMILES
enhanced | improved |  |  |  | Cn1cc(-c2ccc3c(c2)ncn3-c2cc(NS(=O)(=O)C3CC3)cc(-c3ccc(F)cc3F)c2)cn1 [Compound (I) HCl salt, hydrochloride salt of N-(2′,4′-difluoro-5-(5-(1-methyl-1H-pyrazol-4-yl)-1H-benzo[d]imidazol-1-yl)-[1,1′-biphenyl]-3-yl)cyclopropanesulfonamide]
 |  | practically insoluble | neutral | very low | Cn1cc(-c2ccc3c(c2)ncn3-c2cc(NS(=O)(=O)C3CC3)cc(-c3ccc(F)cc3F)c2)cn1 [Compound (I), N-(2′,4′-difluoro-5-(5-(1-methyl-1H-pyrazol-4-yl)-1H-benzo[d]imidazol-1-yl)-[1,1′-biphenyl]-3-yl)cyclopropanesulfonamide]
